Results: patent US20220072138A1, “NRTI THERAPIES” (THE UNIVERSITY OF LIVERPOOL, priority 2018, published 2022)

Experiments:
[1] = In vitro metabolism of FTC POP fragments in human skeletal muscle S9; format: in vitro ADME; details: human skeletal muscle S9, 1 mM, 37° C.
Method: (§1) After incubation at 37° C., aliquots were taken at each time point and quenched in 2 volumes of Ice-cold methanol. The quenched aliquots were then centrifuged at 14000 rpm for 5 min. The supernatant was diluted 10-fold Into phosphate buffer (0.1 M, pH 7.4) and injected onto the HPLC for analysis (5% to 100% B over 8 minutes at a flow rate of 1 mL mi; solvent A: 50 mM Et3NHOAc, pH 8; solvent B: acetonitrile) and read spectrophotometrically monitoring a decrease in substrate peak area at 305 nm (23) or 280 nm (25) over time. Quantification of 23 at each time point to determine rate was achieved by converting peak areas to nmols using a standard curve (23). Quantification of 25 at each time point to determine rate was achieved by calculating nmols based on the percent of total peak area at 250 nm (25+26, 200 nmol total). Hydrolysis of 25 yields two molar equivalents of 1, determined by quantifying 1 using a standard curve following full conversion of 25 to 1.
Human S9-Skeletal Muscle (Bioreclamation IVT). Solution used for in vitro metabolism is a 50/50 mix of Male Human S9 (Bioreclamation IVT, Cat #S03517) and Female Human S9 (Bioreclamation IVT, Cat #S03518). Protein concentrations (mg/mL) were determined by averaging the concentrations provided by Bioreclamation.

[2] = in vitro; format: in vitro ADME; details: both sexes, human, plasma, pH 7.4
Method: as §1
Human Plasma (Bioreclamation IVT). Solution used for in vitro metabolism is a 50/50 mix of Human Plasma (Male) (Bioreclamation IVT, Cat #[…]2-M) and Human Plasma (Female) (Bioreclamation IVT, Cat #[…]2-F)

[3] = In vitro metabolism of FTC POP fragments in human liver S9; format: in vitro ADME; details: human liver S9, 1 mM, 37° C.
Method: as §1
Human Liver S9 Fraction-Pool of 50 (Sekuisi Xenotech, Product #HO610.59; 20 mg/mL stock)

[4] = primate; cited from earlier work
[5] = tested on: HIV; details: in vivo; cited from earlier work
[6] = tested on: HIV; details: cited from earlier work
[7] = Stability of carbamate 5 under model polymerization conditions; format: physicochemical; details: CH2Cl2, 0.5 eq DMAP, 2 eq pyridine, RT
Method: Stability of compound 5 under polymerization conditions. Carbamate 5 is shown to release TAF in a time bond manner. To determine the stability of carbamate moiety under polymerization conditions and evaluate the utility of TAF phenyl carbamates, carbamate 5 was tested for its stability under model polymerization conditions. A solution of carbamate 5 in methylene chloride (CH2Cl2) was stirred with 0.5 molar equivalent of 4-Dimethylaminopyridine and 2 molar equivalents of pyridine at room temperature (RT, 22-25° C.) for 24 h. The portion of the reaction mixture was removed and dissolved in DMSO followed by analysis of the reaction mixture using HPLC to determine amount of TAF formed and carbamate 5 left after 24 h. Standard curve was used to determine that 20.5% TAF was formed after 24 hours, leaving 79.5% carbamate 5 intact (FIG. 23).

[8] = Solubility of carbamate 5 in phosphate buffer; format: physicochemical; details: 100 mM phosphate buffer pH 7.4 with 5% DMSO v/v
Method: Carbamate 5 was synthesized according to the process described above. Purity. The compound was dissolved in DMSO (100 μM) and injected on HPLC to determine purity of 95.1% at 269-270 nm. Standard Curve. Serial dilution of carbamate 5 in DMSO (100 μM to 0.78 μM) was done and each sample injected on HPLC. The UV absorbance at different concentrations was used to obtain a linear standard curve. The standard curve was used in determining solubility in buffers, kinetics of degradation at pH 7.4 and stability under polymerization conditions. Solubility. Carbamate 5 in DMSO was mixed with 100 mM phosphate buffer pH7.4 with varying amounts of DMSO (0.1% v/v, 0.5% v/v, 1% v/v and 5% v/v). The mixtures were centrifuged at 14000 rpm for 5 min and the supernatant injected on HPLC.

Question: Which “Muscle S9 initial rate (rate of disappearance of starting material)” value [1] does the source give for `O=C(Nc1nc(=O)n([C@@H]2CS[C@H](CO)O2)cc1F)OCCOCCOCCOC(=O)Nc1nc(=O)n([C@@H]2CS[C@H](CO)O2)cc1F` [Polymer 23, (ethane-1,2-diylbis(oxy))bis(ethane-2,1-diyl) bis((5-fluoro-1-((2R,5S)-2-(hydroxymethyl)-1,3-oxathiolan-5-yl)-2-oxo-1,2-dihydropyrimidin-4-yl)carbamate)] here?
Answer: *Non-linear trend

Question: And the half-life at 1 mM [2]?
Answer: 13 ± 1.5 h

Question: What about the “Liver S9 initial rate (rate of disappearance of starting material)” value [3] of the same compound?
Answer: 0.6 ± 0.06 nmol/h/mg

Question: With `C#C[C@]1(CO)O[C@@H](n2cnc3c(N)nc(F)nc32)C[C@@H]1O` [EFdA, 4′-ethynyl-2-fluoro-2′-deoxyadenosine] as the compound, how does the “plasma t1/2” value [4] read?
Answer: ~7 h

Question: And the “viral suppression maintained after the last dose” value [5]?
Answer: ≥ 7 days

Question: And the “predicted in vitro potency relative to TFV” value ([6]; higher than TFV)?
Answer: ~8400 fold

Question: And the IC50 ([6]; read-out: in vitro IC50)?
Answer: ~0.2 nM

Question: With `Nc1nc(=O)n([C@@H]2CS[C@H](COC(=O)OCCOCCOCCOC(=O)OC[C@@H]3O[C@H](n4cc(F)c(N)nc4=O)CS3)O2)cc1F` [Polymer 25, bis(((2R,5S)-5-(4-amino-5-fluoro-2-oxopyrimidin-1(2H)-yl)-1,3-oxathiolan-2-yl)methyl) ((ethane-1,2-diylbis(oxy))bis(ethane-2,1-diyl)) bis(carbonate)] as the compound, how does the “Muscle S9 initial rate (rate of disappearance of starting material)” value [1] read?
Answer: 3.7 ± 0.4 nmol/h/mg

Question: And the half-life at 1 mM [2]?
Answer: 0.45 ± 0.02 h

Question: What about the “Liver S9 initial rate (rate of disappearance of starting material)” value [3] of the same compound?
Answer: 1014 ± 86 nmol/h/mg

Question: Which “TAF formed after 24 hours” value [7] does the source give for “N-(2,4,6-trimethylphenyl)-tenofovir alafenamide carbamate [carbamate 5]” here?
Answer: 20.5%

Question: What about the “carbamate 5 left intact after 24 hours” value [7] of the same compound?
Answer: 79.5%

Question: And the “solubility (achievable concentration)” value [8]?
Answer: 111.2 µM
